Laboratory results taken from patent US5360925A, “Dual inhibitors of no synthase and cyclooxygenase, process for their preparation and therapeutical compositions containing them” (priority 1992, dated 1994).

Assays:
[1] = test system: vascular reactivity to methoxamine; assay: In vivo effect on endotoxin treated pithed rat; conditions: endotoxin 300 μg/kg/h, control 79 ± 9, EDTX 278 ± 34
Method: 10-In vivo effect on endotoxin treated pithed rat:
As previously reported, the association of an inhibitor of NO synthase and an inhibitor of cyclooxygenase has a synergistic effect to restore the blood pressure and vascular reactivity in an endotoxinic or septic animal.
Male Sprague Dawley rats (body weight 280-320 g) were pithed. One hour after pithing, animals were given endotoxin (EDTX, Escherichia Coli, lipopolysaccharide, O III, B4 =300 μg/kg/h) for 60 minutes. […]

[2] = test system: neuronal death after focal cerebral ischemia; assay: In vivo effect on neuronal death after focal cerebral ischemia in mice; conditions: 3 mg/kg ip, 5 hours after middle cerebral artery occlusion; mean of six animals
Method: 9-In vivo effect on neuronal death after focal cerebral ischemia in mice:
Systemic intraperitoneal (ip) administration of the compounds was carried out 5 hours after cortical infarction induced by the occlusion of the middle cerebral artery in male Swiss mice (20-22 g), according to Duverger et al.--Pharmacology of cerebral ischemia in Krieglstein and Oberpichler, Wissenschaftliche Verlagsgesellschaft, Stuttgart, 1990, 409-413. Four days later, the mice were decapitated and their brains removed and frozen to be then sectioned in coronal slices of […] thickness. Area infarction was measured by image analysis. Reduction of infarcted volume was measured and compared with non treated animal. The percentage indicated the mean reduction of infarct from six animals per group--MK 801, a NMDA antagonist was used as a control substance.

[3] = test system: J774 A1 monocyte/macrophage cell line; assay: In vitro effect on nitrite production induced by LPS+INFγ on J774 A1 monocyte/macrophage cell line; type: cell-based, murine
Excerpt: 5-In vitro effect on nitrite production induced by LPS+INFγ on J774 A1 monocyte/macrophage cell line:
Macrophage type cells like J774 A1 cell line are interesting to use since they are important cells in inflammation and express large amount of NO (due to the induction of NO synthase) and cyclooxygenase products. They are activated with lipopolysaccharide (LPS) in presence of interferon γ (INFγ). This assay was used to compare the effects of compounds of the invention with the association of their separated parent compounds.
Murine monocyte/macrophage cells were grown in Dubecco's modified Eagle's medium at 37° C. The cells were plated in 24 well culture plate (NUNC) and were used for experiments at about 2×10^5 cells/plate. The cells were activated with LPS (1 μg/ml) from E. Coli (SO55:B5) and murine recombinant IFNγ (50 U/ml) and then incubated in the presence or absence of the compounds. After 48 h nitrite (NO2 -) levels, which correlate with the activation of NO synthase, were assessed in the culture media by the colorimetric method according to Green et al (L. Green, D. Wagner, J. Glogowski, P. Skipper, J. Wishwok and S. Tannenbaum, Analysis of nitrate, nitrite and [15N] nitrate in biological fluids. Analytical Biochemistry 126, 131-138, 1982).

constitutive NO synthase = biological target: T1, constitutive NO synthase (Rattus norvegicus, UniProt Q62600); assay: In vitro effect on constitutive NO synthase in the isolated rat aorta; type: cell-based; conditions: isolated rat aorta with endothelium; reversal of carbachol relaxation; PE 1 μM; read-out: Test on constitutive NO synthase IC50
T1 construct: Preparations of isolated rat aorta with endothelium; from tissue; host or cells: isolated thoracic aorta rings with endothelium, Sprague Dawley rat
T1 sequence (Q62600 2-1202 limits assumed): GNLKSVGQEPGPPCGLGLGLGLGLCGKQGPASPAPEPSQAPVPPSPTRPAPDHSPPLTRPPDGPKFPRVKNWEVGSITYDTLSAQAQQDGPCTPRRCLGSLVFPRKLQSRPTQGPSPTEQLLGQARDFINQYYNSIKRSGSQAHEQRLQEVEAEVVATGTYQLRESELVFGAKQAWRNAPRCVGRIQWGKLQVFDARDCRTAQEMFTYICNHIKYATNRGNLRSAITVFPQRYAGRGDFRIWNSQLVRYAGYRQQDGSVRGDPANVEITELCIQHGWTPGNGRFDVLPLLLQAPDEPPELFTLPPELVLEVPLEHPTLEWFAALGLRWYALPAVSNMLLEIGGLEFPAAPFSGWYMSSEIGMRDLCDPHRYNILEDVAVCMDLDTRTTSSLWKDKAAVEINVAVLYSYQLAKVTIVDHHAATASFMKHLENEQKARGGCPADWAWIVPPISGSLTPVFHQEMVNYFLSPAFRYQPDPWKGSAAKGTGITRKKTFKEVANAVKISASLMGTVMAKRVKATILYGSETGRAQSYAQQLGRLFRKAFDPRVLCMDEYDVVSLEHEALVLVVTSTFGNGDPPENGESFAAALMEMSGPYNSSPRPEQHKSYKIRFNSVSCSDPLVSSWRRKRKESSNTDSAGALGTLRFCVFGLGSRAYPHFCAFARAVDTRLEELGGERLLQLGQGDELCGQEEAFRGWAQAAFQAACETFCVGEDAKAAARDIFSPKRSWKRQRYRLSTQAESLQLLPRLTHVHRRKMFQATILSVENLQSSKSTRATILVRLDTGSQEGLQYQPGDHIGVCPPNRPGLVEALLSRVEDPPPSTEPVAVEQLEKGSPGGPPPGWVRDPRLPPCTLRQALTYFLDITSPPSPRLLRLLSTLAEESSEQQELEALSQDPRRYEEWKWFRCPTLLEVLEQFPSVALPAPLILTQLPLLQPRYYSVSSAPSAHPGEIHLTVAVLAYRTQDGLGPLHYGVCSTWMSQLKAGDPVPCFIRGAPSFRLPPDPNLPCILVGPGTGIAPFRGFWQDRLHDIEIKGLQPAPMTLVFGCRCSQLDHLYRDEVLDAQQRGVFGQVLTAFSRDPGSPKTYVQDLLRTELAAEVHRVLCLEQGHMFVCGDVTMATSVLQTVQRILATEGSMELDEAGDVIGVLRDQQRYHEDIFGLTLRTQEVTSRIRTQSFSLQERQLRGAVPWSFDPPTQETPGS
Method: 1-In vitro effect on constitutive NO synthase in the isolated rat aorta;
Preparations of isolated rat aorta with endothelium were prepared as previously described (M. Auguet, S. Delaflotte, P. E. Chabrier and P. Braquet--Comparative effects of endothelium and phorbol 12-13 dibutyrate in rat aorta, Life Sciences, 1989, 45, 2051-2059).
Male Sprague Dawley rats (270-360 g, Charles River, Paris) were sacrificed by cervical dislocation and the thoracic aorta removed and cleaned of the surrounding tissue. Rings 2 mm wide were suspended in organ baths containing 10 ml of physiological solution (for composition, see below) under a tension of 2 g at 37° C. and gassed with O2 /CO2 (95%/5%). Contractile responses were measured, using force displacement transducers (Slatham UC2) coupled to a Gould 8000 S polygraph. An equilibration period of one hour was allowed before experimentation. Normal physiological solution was composed of (mM): NaCl, 118; KCl, 4.7; CaCl2, 2.5; KH2 PO4, 1.2; MgSO4, 0.6; NaHCO3, 25; glucose, 11. After equilibration in normal medium, the preparation was subjected to a near maximal dose (about 95%) of phenylephrine (PE, 1 μM). When the contraction was stable, carbachol (10 μM) was tested in order to evaluate the presence or absence of endothelium. […]

inducible NO synthase = biological target: T2, inducible NO synthase (Rattus norvegicus, UniProt Q06518); assay: In vitro effect on inducible NO synthase in the isolated rat aorta from endotoxin-shocked animal; type: cell-based; conditions: aorta from endotoxin-treated rats, endothelium disrupted; PE 1 μM; read-out: Test on inducible NO synthase IC50
T2 construct: the compounds were tested on isolated rat aorta from shocked animal; from tissue; host or cells: thoracic aorta rings, endothelium removed, from endotoxin-treated Sprague Dawley rats

cyclooxygenase [4] = biological target: T3, cyclooxygenase (Mus musculus, UniProt Q05769); assay: In vitro effect on prostaglandin (6 keto PGF1α) production induced by LPS+IFNγ on J774A1 monocyte/macrophage cell line; type: cell-based, murine; conditions: for effect on release of 6 keto PGF1α: LPS+IFNγ, J774A1 culture media
T3 construct: main cyclooxygenase products produced by J774A1 cell line; endogenous in cells
T3 sequence (Q05769 18-604): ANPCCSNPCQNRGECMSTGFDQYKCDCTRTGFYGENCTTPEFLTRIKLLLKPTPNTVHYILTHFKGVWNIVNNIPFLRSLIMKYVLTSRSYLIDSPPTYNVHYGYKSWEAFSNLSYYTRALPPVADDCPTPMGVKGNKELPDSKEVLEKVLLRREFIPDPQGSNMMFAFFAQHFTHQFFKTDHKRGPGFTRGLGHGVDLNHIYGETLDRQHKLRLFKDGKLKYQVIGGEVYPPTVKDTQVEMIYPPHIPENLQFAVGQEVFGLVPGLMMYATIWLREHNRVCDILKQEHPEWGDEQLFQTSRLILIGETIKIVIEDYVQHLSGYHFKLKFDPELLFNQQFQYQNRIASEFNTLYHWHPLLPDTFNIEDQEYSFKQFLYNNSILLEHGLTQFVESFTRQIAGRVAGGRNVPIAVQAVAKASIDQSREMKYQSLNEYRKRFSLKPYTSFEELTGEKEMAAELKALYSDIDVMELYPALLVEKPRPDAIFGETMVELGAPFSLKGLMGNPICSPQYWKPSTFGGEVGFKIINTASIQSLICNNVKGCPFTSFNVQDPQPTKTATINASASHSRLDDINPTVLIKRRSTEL
Method: 6-In vitro effect on prostaglandin production induced by LPS+IFNγ on J774A1 monocyte/macrophage cell line:
Levels of one of the main cyclooxygenase products produced by J774A1 cell line (i.e.: 6 keto PGF1α) the stable metabolite of PGI2 were assessed in the culture media by a specific radioimmunoassay (NEN, Kit NEK 025).

cyclooxygenase [5] = biological target: T4, cyclooxygenase (Oryctolagus cuniculus, UniProt O97554); assay: In vitro effect on arachidonic acid induced aggregation of washed rabbit platelets; type: cell-based; conditions: arachidonic acid 0.5 mM, read-out: IC50 (arachidonic acid induced platelet aggregation)
T4 construct: arachidonic acid induced aggregation of washed rabbit platelets; endogenous in cells; host or cells: washed platelets of male New Zealand rabbits
T4 sequence (O97554 31-606): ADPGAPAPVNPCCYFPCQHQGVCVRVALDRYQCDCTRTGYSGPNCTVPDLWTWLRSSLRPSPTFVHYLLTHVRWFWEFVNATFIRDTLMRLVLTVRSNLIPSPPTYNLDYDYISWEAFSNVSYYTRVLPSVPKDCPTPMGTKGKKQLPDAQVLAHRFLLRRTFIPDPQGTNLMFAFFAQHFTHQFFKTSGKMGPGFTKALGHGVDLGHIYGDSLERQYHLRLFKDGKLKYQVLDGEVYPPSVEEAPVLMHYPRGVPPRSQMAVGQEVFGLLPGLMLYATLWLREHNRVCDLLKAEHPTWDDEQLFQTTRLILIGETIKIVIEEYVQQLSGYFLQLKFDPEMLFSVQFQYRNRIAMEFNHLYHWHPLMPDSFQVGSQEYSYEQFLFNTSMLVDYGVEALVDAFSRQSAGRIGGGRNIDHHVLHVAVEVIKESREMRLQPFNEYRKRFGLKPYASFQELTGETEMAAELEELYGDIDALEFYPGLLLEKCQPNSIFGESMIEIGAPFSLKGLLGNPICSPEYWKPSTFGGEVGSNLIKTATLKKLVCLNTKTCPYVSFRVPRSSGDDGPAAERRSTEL
Method: This protocol was used to assay the effect of the compounds on the cyclooxygenase. […] Blood was taken from the auricular artery of male New Zealand rabbit (2.5 kg mean body weight) on ACD (citric acid/sodium citrate/dextrose) as anticoagulant. The washed platelets were prepared and then transferred in the cuvet of the aggregometer (Chronolog aggregometer Coultronics).

With `CNC(=N)NCCC[C@H](N)C(=O)O.O=C(O)c1ccccc1O` [Example 2] the “vascular reactivity to methoxamine DE50” value ([1]; dose 30 mg/kg/h) was 98 ± 35 µg/kg, the Reduction of infarct [2] was -55% and the “% OF INHIBITION of nitrite production” value ([3]; 10^-4 M, LPS+INF, J774) was 75.5%. The “% OF INHIBITION of nitrite production” value ([3]; 10^-5 M, LPS+INF, J774) was 61% and the “% OF INHIBITION of nitrite production” value ([3]; 10^-6 M, LPS+INF, J774) was 53%.

Molecule `CNC(=N)NCCCC(N)C(=O)O.Cc1cccc(Nc2ccccc2C(=O)O)c1C` [Example 12] has an IC50 (constitutive NO synthase) of 10 µM.

For `CC1=C(CC(=O)O)c2cc(F)ccc2/C1=C\c1ccc([S+](C)[O-])cc1.N=C(NCCC[C@H](N)C(=O)O)N[N+](=O)[O-]` (stereo not shown) [Example 13], the “% OF INHIBITION of nitrite production” value ([3]; 10^-4 M, LPS+INF, J774) was 71%, the “% OF INHIBITION of nitrite production” value ([3]; 10^-5 M, LPS+INF, J774) was 63% and the “% OF INHIBITION of nitrite production” value ([3]; 10^-6 M, LPS+INF, J774) was 56%.

Work on `COC(=O)[C@H](CCCNC(N)=N[N+](=O)[O-])NC(=O)c1ccccc1OC(C)=O` [Example 16] yielded an IC50 (inducible NO synthase) of 4 µM and an IC50 (constitutive NO synthase) of 9 µM.

`COC(=O)C(CCCNC(=N)N[N+](=O)[O-])NC(=O)CC1=C(C)C(=Cc2ccc([S+](C)[O-])cc2)c2ccc(F)cc21` (stereo not shown) [Example 17] gave a Reduction of infarct [2] of -69%, an inhibition at 100 µM ([3]; Mus musculus, J774.A1, 10^-4 M, LPS+INF, J774) of 73% and an inhibition at 10 µM ([3]; Mus musculus, J774.A1, 10^-5 M, LPS+INF, J774) of 57%. For the same molecule, the inhibition at 1 µM ([3]; Mus musculus, J774.A1, 10^-6 M, LPS+INF, J774) was 49%, the inhibition at 100 µM (cyclooxygenase [4]; J774.A1, 10^-4 M, LPS+INF, J774A1, read-out: % OF INHIBITION of 6-keto PG F1 production) was 92% and the inhibition at 10 µM (cyclooxygenase [4]; J774.A1, 10^-5 M, LPS+INF, J774A1, read-out: % OF INHIBITION of 6-keto PG F1 production) was 83%. For the same molecule, the inhibition at 1 µM (cyclooxygenase [4]; J774.A1, 10^-6 M, LPS+INF, J774A1, read-out: % OF INHIBITION of 6-keto PG F1 production) was 74%.

`COC(=O)[C@@H](N)CCCNC(N)=N[N+](=O)[O-]` [L-NAME, N-ω-nitro-L-Arginine methyl ester, reference compound] was tested, and the “effect on release of 6 keto PGF1α” value (cyclooxygenase [4]) was “not affected”.

For `NC(=N[N+](=O)[O-])NCCC[C@H](N)C(=O)O` [L-NO, N-ω-nitro-L-Arginine, reference compound], the IC50 ([3]; Mus musculus, J774.A1, activated cells, LPS 1 μg/ml + IFNγ 50 U/ml, 48 h) was 15 µM and the “effect on release of 6 keto PGF1α” value (cyclooxygenase [4]) was “not affected”.

In the case of `C[C@]12N[C@H](Cc3ccccc31)c1ccccc12` [MK 801, reference compound], the Reduction of infarct [2] is reported as -51%.

`CC(=O)Oc1ccccc1C(=O)O` [aspirin, acetylsalicylic acid, reference compound] was tested, and the “vascular reactivity to methoxamine DE50” value ([1]; dose 150 mg/kg/h) was 136 ± 29 µg/kg, the IC50 (cyclooxygenase [5]) was 200 µM and the “effect on release of 6 keto PGF1α” value (cyclooxygenase [4]) was “abolished in a dose dependent manner”.
